Measured values published in patent US20130040952A1 (priority 2011, published 2013).

What was measured:
Format in all cases: cell-based, recombinant influenza virus in WSN background
[1] = system: nucleozin-resistant rWSN virus (Y289H mutation at NP)
[2] = system: Y52H/Y289H double mutation rWSN virus; settings: read-out: Anti-rWSN IC50 (μM), NP Y52H/Y289H
[3] = system: compound 3061-resistant rWSN virus (Y52H mutation at NP)

Which “inhibition of nucleozin-resistant strain” value [1] does the source give for O=C(NCCCN1CCOCC1)c1csc(Nc2ccc(Cl)c(Cl)c2)n1 [compound 1] here?
Its value is “capable of inhibiting”.

And the IC50 ([1]; read-out: Anti-rWSN IC50 (μM), NP Y289H)?
Its IC50 is 4 µM.

What about the IC50 [2] of the same molecule?
Its IC50 is 1.8 µM.

What about the “inhibition of 3061-resistant strain” value [3] of the same molecule?
Its value is “capable of inhibiting”.

And the IC50 ([3]; read-out: Anti-rWSN IC50 (μM), NP Y52H)?
Its IC50 is 3.2 µM.
